Experimental findings from patent US20200207759A1, “NEW PROPANAMINE DERIVATIVES FOR TREATING PAIN AND PAIN RELATED CONDITIONS” (ESTEVE PHARMACEUTICALS, S.A., priority 2017, published 2020) are described below.

Some results are limits rather than exact numbers.

Assay [1] deals with Human α2δ-1 subunit of Cav2.2 calcium channel (Homo sapiens, UniProt P54289). Briefly: Binding assay to human α2δ-1 subunit of Cav2.2 calcium channel, [3H]-Gabapentin. Particulars: human α2δ-1 enriched membranes, 15 nM [3H]-Gabapentin; read-out: Ki (nM) alpha2delta Hum. As for the experimental part: Binding Assay to Human α2δ-1 Subunit of Cav2.2 Calcium Channel.
Human α2δ-1 enriched membranes (2.5 μg) were incubated with 15 nM of radiolabeled [3H]-Gabapentin in assay buffer containing Hepes-KOH 10 mM, pH 7.4.
NSB (non specific binding) was measured by adding 10 μM pregabalin. After 60 min incubation at 27° C., binding reaction was terminated by filtering through Multiscreen GF/C (Millipore) presoaked in 0.5% polyethyleneimine in Vacuum Manifold Station, followed by 3 washes with ice-cold filtration buffer containing 50 mM Tris-HCl, pH 7.4.
Filter plates were dried at 60° C. for 1 hour and 30 μl of scintillation cocktail were added to each well before radioactivity reading.
Readings were performed in a Trilux 1450 Microbeta radioactive counter (Perkin Elmer).

Assay [2] concerns the target Human norepinephrine transporter (NET) (Homo sapiens, UniProt P23975). Briefly: Binding assay to human norepinephrine transporter (NET), [3H]-Nisoxetin. Particulars: human NET enriched membranes, 5 nM [3H]-Nisoxetin; read-out: Ki (nM) NET Hum. As for the experimental part: Binding Assay to Human Norepinephrine Transporter (NET).
Human norepinephrine transporter (NET) enriched membranes (5 μg) were incubated with 5 nM of radiolabeled [3H]-Nisoxetin in assay buffer containing 50 mM Tris-HCl, 120 mM NaCl, 5 mM KCl, pH 7.4.
NSB (non specific binding) was measured by adding 1 μM. After 60 min incubation at 4° C., binding reaction was terminated by filtering through Multiscreen GF/C (Millipore) presoaked in 0.5% polyethyleneimine in Vacuum Manifold Station, followed by 3 washes with ice-cold filtration buffer containing 50 mM Tris-HCl, 0.9% NaCl, pH 7.4. Filter plates were dried at 60° C. for 1 hour and 30 μl of scintillation cocktail were added to each well before radioactivity reading.

Chain of Human α2δ-1 subunit of Cav2.2 calcium channel (P54289 25-1103): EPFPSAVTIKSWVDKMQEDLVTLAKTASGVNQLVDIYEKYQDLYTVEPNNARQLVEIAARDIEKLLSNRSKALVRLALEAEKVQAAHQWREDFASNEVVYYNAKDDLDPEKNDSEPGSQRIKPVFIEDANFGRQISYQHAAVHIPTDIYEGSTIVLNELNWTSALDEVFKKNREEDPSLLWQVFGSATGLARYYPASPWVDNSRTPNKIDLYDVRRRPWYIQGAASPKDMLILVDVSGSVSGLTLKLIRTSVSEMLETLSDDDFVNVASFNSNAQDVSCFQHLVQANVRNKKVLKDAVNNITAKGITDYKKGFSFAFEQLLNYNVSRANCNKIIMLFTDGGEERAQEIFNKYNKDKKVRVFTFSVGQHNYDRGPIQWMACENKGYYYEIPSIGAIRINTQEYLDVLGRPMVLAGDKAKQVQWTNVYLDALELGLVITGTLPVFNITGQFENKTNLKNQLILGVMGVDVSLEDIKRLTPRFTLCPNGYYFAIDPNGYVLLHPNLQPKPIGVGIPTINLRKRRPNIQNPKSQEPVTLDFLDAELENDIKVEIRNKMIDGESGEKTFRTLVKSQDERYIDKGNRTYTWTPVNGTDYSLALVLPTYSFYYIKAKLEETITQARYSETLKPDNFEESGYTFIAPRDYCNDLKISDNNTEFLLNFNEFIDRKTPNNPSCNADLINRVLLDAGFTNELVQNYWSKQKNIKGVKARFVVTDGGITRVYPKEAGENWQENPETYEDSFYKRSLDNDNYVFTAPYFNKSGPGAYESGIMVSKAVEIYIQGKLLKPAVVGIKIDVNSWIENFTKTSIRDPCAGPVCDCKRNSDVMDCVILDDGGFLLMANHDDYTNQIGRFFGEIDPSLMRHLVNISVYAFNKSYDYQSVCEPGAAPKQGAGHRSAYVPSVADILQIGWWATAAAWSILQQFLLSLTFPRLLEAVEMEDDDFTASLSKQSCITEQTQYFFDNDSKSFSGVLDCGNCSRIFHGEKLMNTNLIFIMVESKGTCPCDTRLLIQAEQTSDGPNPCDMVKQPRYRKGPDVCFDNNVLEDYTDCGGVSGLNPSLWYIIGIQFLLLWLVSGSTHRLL
Chain of Human norepinephrine transporter (NET) (P23975 whole entry): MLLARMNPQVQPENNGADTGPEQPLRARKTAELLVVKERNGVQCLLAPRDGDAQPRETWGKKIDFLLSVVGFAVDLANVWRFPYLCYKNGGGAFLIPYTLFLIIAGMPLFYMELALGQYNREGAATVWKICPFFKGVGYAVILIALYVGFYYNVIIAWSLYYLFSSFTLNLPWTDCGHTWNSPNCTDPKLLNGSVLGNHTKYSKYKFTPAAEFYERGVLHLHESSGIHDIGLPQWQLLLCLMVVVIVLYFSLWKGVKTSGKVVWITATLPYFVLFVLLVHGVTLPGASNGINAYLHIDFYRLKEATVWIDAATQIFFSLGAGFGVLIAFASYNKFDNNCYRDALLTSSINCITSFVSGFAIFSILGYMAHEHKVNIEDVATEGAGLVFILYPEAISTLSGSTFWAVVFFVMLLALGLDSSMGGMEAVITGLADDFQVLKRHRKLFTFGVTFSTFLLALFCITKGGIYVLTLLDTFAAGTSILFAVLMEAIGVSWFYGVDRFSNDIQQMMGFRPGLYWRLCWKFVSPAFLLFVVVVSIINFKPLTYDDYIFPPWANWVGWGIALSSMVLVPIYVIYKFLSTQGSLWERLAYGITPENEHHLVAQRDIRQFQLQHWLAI

Take `CNCC[C@H](c1ccc(F)s1)N1CCc2ncccc21` [Example 18, (R)-3-(2,3-Dihydro-1H-pyrrolo[3,2-b]pyridin-1-yl)-3-(5-fluorothiophen-2-yl)-N-methylpropan-1-amine]: the values for the Ki in assay [1] and in assay [2] were 500 to 3000 nM and 500 to 1000 nM, respectively.
For `CNCC[C@@H](c1ccc(F)s1)N1CCc2ncccc21` [Example 19, (S)-3-(2,3-dihydro-1H-pyrrolo[3,2-b]pyridin-1-yl)-3-(5-fluorothiophen-2-yl)-N-methylpropan-1-amine], in that order: 100 to 500 nM and 500 to 1000 nM.
Turning to `CNCC[C@H](c1cccs1)N1CC(C)(C)c2ncccc21` [Example 20, (R)-3-(3,3-Dimethyl-2,3-dihydro-1H-pyrrolo[3,2-b]pyridin-1-yl)-N-methyl-3-(thiophen-2-yl)propan-1-amine], the Ki in assay [1] was 100 to 500 nM; in assay [2], more than 1000 nM.
`CNCC[C@@H](c1cccs1)N1CC(C)(C)c2ncccc21` [Example 21, (S)-3-(3,3-dimethyl-2,3-dihydro-1H-pyrrolo[3,2-b]pyridin-1-yl)-N-methyl-3-(thiophen-2-yl)propan-1-amine]: the results for the Ki in assay [1] and in assay [2] were 500 to 3000 nM and 100 to 500 nM, respectively.
For `CNCC[C@H](c1ccsc1)N1CCc2ncccc21` [Example 22, (R)-3-(2,3-Dihydro-1H-pyrrolo[3,2-b]pyridin-1-yl)-N-methyl-3-(thiophen-3-yl)propan-1-amine], in that order: 500 to 3000 nM and more than 1000 nM.
For the compound `CNCC[C@@H](c1ccsc1)N1CCc2ncccc21` [Example 23, (S)-3-(2,3-Dihydro-1H-pyrrolo[3,2-b]pyridin-1-yl)-N-methyl-3-(thiophen-3-yl)propan-1-amine], the Ki in assay [1] and in assay [2] was 100 to 500 nM in each case.
With `CNCC[C@H](c1ccsc1)N1CC(C)(C)c2ncccc21` [Example 24, (R)-3-(3,3-Dimethyl-2,3-dihydro-1H-pyrrolo[3,2-b]pyridin-1-yl)-N-methyl-3-(thiophen-3-yl)propan-1-amine], the Ki in assay [1] was 100 to 500 nM; in assay [2] it was more than 1000 nM.
Regarding `CNCC[C@@H](c1ccsc1)N1CC(C)(C)c2ncccc21` [Example 25, (S)-3-(3,3-Dimethyl-2,3-dihydro-1H-pyrrolo[3,2-b]pyridin-1-yl)-N-methyl-3-(thiophen-3-yl)propan-1-amine], the Ki in assay [1] fell in the range of 500 to 3000 nM; in assay [2] it was 100 to 500 nM.
As for `CNCC[C@H](c1cccs1)N1CCc2ncc(F)cc21` [Example 26, (R)-3-(6-Fluoro-2,3-dihydro-1H-pyrrolo[3,2-b]pyridin-1-yl)-N-methyl-3-(thiophen-2-yl)propan-1-amine], the results for the Ki in assay [1] and in assay [2] were 100 to 500 nM and more than 1000 nM, respectively.
As for `CNCC[C@@H](c1cccs1)N1CCc2ncc(F)cc21` [Example 27, (S)-3-(6-Fluoro-2,3-dihydro-1H-pyrrolo[3,2-b]pyridin-1-yl)-N-methyl-3-(thiophen-2-yl)propan-1-amine], the results for the Ki in assay [1] and in assay [2] were 100 to 500 nM and more than 1000 nM, respectively.
The like results for `CNCC[C@H](c1ccsc1)N1CCc2ncc(F)cc21` [Example 28, (R)-3-(6-Fluoro-2,3-dihydro-1H-pyrrolo[3,2-b]pyridin-1-yl)-N-methyl-3-(thiophen-3-yl)propan-1-amine] were, in that order, 100 to 500 nM and 500 to 1000 nM.
As to `CNCC[C@@H](c1ccsc1)N1CCc2ncc(F)cc21` [Example 29, (S)-3-(6-Fluoro-2,3-dihydro-1H-pyrrolo[3,2-b]pyridin-1-yl)-N-methyl-3-(thiophen-3-yl)propan-1-amine], the Ki in assay [1] is 100 to 500 nM; in assay [2], 500 to 1000 nM.
The like results for `CNCC[C@H](c1cccs1)N1CCc2ncc(OC)cc21` [Example 30, (R)-3-(6-Methoxy-2,3-dihydro-1H-pyrrolo[3,2-b]pyridin-1-yl)-N-methyl-3-(thiophen-2-yl)propan-1-amine] were, in that order, 100 to 500 nM and more than 1000 nM.
Turning to `CNCC[C@@H](c1cccs1)N1CCc2ncc(OC)cc21` [Example 31, (S)-3-(6-Methoxy-2,3-dihydro-1H-pyrrolo[3,2-b]pyridin-1-yl)-N-methyl-3-(thiophen-2-yl)propan-1-amine], the Ki is not below 3000 nM in assay [1] and 500 to 1000 nM in assay [2].
As for `CCc1cnc2c(c1)N([C@H](CCNC)c1cccs1)CC2` [Example 32, (R)-3-(6-Ethyl-2,3-dihydro-1H-pyrrolo[3,2-b]pyridin-1-yl)-N-methyl-3-(thiophen-2-yl)propan-1-amine], the Ki in assay [1] and in assay [2] was 100 to 500 nM each time.
For `CCc1cnc2c(c1)N([C@@H](CCNC)c1cccs1)CC2` [Example 33, (S)-3-(6-Ethyl-2,3-dihydro-1H-pyrrolo[3,2-b]pyridin-1-yl)-N-methyl-3-(thiophen-2-yl)propan-1-amine], the figures for the Ki in assay [1] and in assay [2] were not below 3000 nM and 500 to 1000 nM, respectively.
`CNCC[C@H](c1cccs1)N1CC(C)(C)c2nc(C)ccc21` [Example 34, (R)-N-methyl-3-(thiophen-2-yl)-3-(3,3,5-trimethyl-2,3-dihydro-1H-pyrrolo[3,2-b]pyridin-1-yl)propan-1-amine]: the Ki in assay [1] was less than 100 nM; in assay [2] it was more than 1000 nM.
For `CNCC[C@@H](c1cccs1)N1CC(C)(C)c2nc(C)ccc21` [Example 35, (S)-N-methyl-3-(thiophen-2-yl)-3-(3,3,5-trimethyl-2,3-dihydro-1H-pyrrolo[3,2-b]pyridin-1-yl)propan-1-amine], in that order: 100 to 500 nM and less than 100 nM.
Turning to `CNCC[C@H](c1sccc1Cl)N1CCc2ncccc21` [Example 36, (R)-3-(3-Chlorothiophen-2-yl)-3-(2,3-dihydro-1H-pyrrolo[3,2-b]pyridin-1-yl)-N-methylpropan-1-amine], the Ki in assay [1] was not below 3000 nM; in assay [2], 100 to 500 nM.
With `CNCC[C@@H](c1sccc1Cl)N1CCc2ncccc21` [Example 37, (S)-3-(3-Chlorothiophen-2-yl)-3-(2,3-dihydro-1H-pyrrolo[3,2-b]pyridin-1-yl)-N-methylpropan-1-amine], the Ki in assay [1] is not below 3000 nM; in assay [2] it was 100 to 500 nM.
In the case of `CNCC[C@@H](c1cccs1)N1CCc2ncc(C(C)C)cc21` [Example 38, (S)-3-(6-Isopropyl-2,3-dihydro-1H-pyrrolo[3,2-b]pyridin-1-yl)-N-methyl-3-(thiophen-2-yl)propan-1-amine], the Ki was not below 3000 nM in assay [1] and more than 1000 nM in assay [2].
Consider `CNCC[C@H](c1cccs1)N1CCc2ncc(C(C)C)cc21` [Example 39, (R)-3-(6-Isopropyl-2,3-dihydro-1H-pyrrolo[3,2-b]pyridin-1-yl)-N-methyl-3-(thiophen-2-yl)propan-1-amine], for which the Ki in assay [1] is 100 to 500 nM; in assay [2] it was more than 1000 nM.
For `CNCC[C@@H](c1ccc(Cl)s1)N1CCc2ncccc21` [Example 40, (S)-3-(5-Chlorothiophen-2-yl)-3-(2,3-dihydro-1H-pyrrolo[3,2-b]pyridin-1-yl)-N-methylpropan-1-amine], the Ki in assay [1] was 100 to 500 nM; in assay [2], 500 to 1000 nM.
For `CNCC[C@H](c1ccc(Cl)s1)N1CCc2ncccc21` [Example 41, (R)-3-(5-Chlorothiophen-2-yl)-3-(2,3-dihydro-1H-pyrrolo[3,2-b]pyridin-1-yl)-N-methylpropan-1-amine], the Ki is 500 to 3000 nM in assay [1] and more than 1000 nM in assay [2].
For `CNCC[C@H](c1cc(C)sc1C)N1CCc2ncccc21` [Example 42, (R)-3-(2,3-Dihydro-1H-pyrrolo[3,2-b]pyridin-1-yl)-3-(2,5-dimethylthiophen-3-yl)-N-methylpropan-1-amine], in that order: not below 3000 nM and more than 1000 nM.
For the compound `CNCC[C@@H](c1cc(C)sc1C)N1CCc2ncccc21` [Example 43, (S)-3-(2,3-Dihydro-1H-pyrrolo[3,2-b]pyridin-1-yl)-3-(2,5-dimethylthiophen-3-yl)-N-methylpropan-1-amine], the Ki in assay [1] was not below 3000 nM; in assay [2], more than 1000 nM.
`CNCC[C@H](c1ccc(C)s1)N1CCc2ncccc21` [Example 44, (R)-3-(2,3-Dihydro-1H-pyrrolo[3,2-b]pyridin-1-yl)-N-methyl-3-(5-methylthiophen-2-yl)propan-1-amine]: the Ki is 500 to 3000 nM in assay [1] and more than 1000 nM in assay [2].
Turning to `CNCC[C@@H](c1ccc(C)s1)N1CCc2ncccc21` [Example 45, (S)-3-(2,3-Dihydro-1H-pyrrolo[3,2-b]pyridin-1-yl)-N-methyl-3-(5-methylthiophen-2-yl)propan-1-amine], the Ki in assay [1] is 500 to 3000 nM; in assay [2], more than 1000 nM.
For `CNCC[C@H](c1ccsc1)N1CCc2nc(C(C)C)ccc21` [Example 46, (R)-3-(5-Isopropyl-2,3-dihydro-1H-pyrrolo[3,2-b]pyridin-1-yl)-N-methyl-3-(thiophen-3-yl)propan-1-amine], the results for the Ki in assay [1] and in assay [2] were 500 to 3000 nM and more than 1000 nM, respectively.
For `CNCC[C@@H](c1ccsc1)N1CCc2nc(C(C)C)ccc21` [Example 47, (S)-3-(5-Isopropyl-2,3-dihydro-1H-pyrrolo[3,2-b]pyridin-1-yl)-N-methyl-3-(thiophen-3-yl)propan-1-amine], in that order: 500 to 3000 nM and more than 1000 nM.
